The term inhibition denotes how much of the control response was suppressed. A lower inhibition goes with a response near the control.

Experiment [1] addresses T1, prostanoide receptor subtype (human EP4) (Homo sapiens, UniProt P35408).
T1 construct: expressed in transfected cells; host or cells: COS-7
As to the kind of experiment: Binding assay using expression of prostanoide receptor subtype ([3H]-PGE2 competition, COS-7 membrane fraction). As to conditions: compound at 10 μM, 1 hour at 30° C., COS-7 cells transfected human EP4. As for the experimental part:
Binding Assay Using Expression of Prostanoide Receptor Subtype
The membrane fraction was prepared using COS-7 cells transfected prostanoide receptor subtype (human EP4).
The Standard assay mixture contained membrane fraction, [^3 H]-PGE2 in final volume of 0.25 ml was incubated for 1 hour at 30° C. The reaction was terminated by that the mixture was rapidly filtered through a glass filter (GF/B). Then the filter was washed by 4 ml of ice-cold buffer at two times. The radioactivity associated with the filter was measured by liquid scintillation counting.
In the experiment for competition of specific [^3 H]-PGE2 was added at a concentration of 10 μM. The following buffer was used in all reactions.
Buffer: 20 mM Mes (pH 6.0), 1 mM EDTA, 10 mM MgCl2

For a further experiment, the system named is Mouse B Lymphocytes. As to the kind of experiment: Effect on PGE2-induced IgE and IgG1 secretion in mouse B lymphocytes (LPS and IL-4, ELISA). It counts as cell-based, mouse (BDF1). The conditions noted are these: + 10^-5 M Test Compound, LPS and IL-4, 6 days, Mean ± S.E.M. (n = 4). As for the experimental part: Effect on IgE and IgG1 Secretion in Mouse B Lymphocytes
Inhibitory properties of a test compound against PGE2 -induced IgE and IgG1 secretion in isolated resting B lymphocytes of mice were tested. Resting mouse B lymphocytes were isolated from spleens of 12-week-old BDF1 male mice (Clea Japan Inc.) using adherent cell depletion, negative selection by FITC-anti-Thy 1.2 (30H12), FITC-anti-CD4 (GK1.5), FITC-anti-CD11b (M1/70) and FITC-anti-CD8a (5.-6.7) (Pharmingen) with anti-FITC Ab coating magnetic beads (PerSpective Daiagnostics) and Percoll gradient (Pharmacia). Resting B lymphocytes were cultured in flat-bottomed96-well microtiter plates (Becton Dickinson) at 1×10^6 cells per ml and preincubated with a test compound or DMSO control for 30 minutes. Then PGE2 were added at 10^-6 M. After 1 hour, LPS and IL-4 were added and incubated at 37° C. in a humidified atmosphere with 5% CO2. After 6 days, supernatants were collected and IgE and IgG1 were measured by the ELISA.
(ELISA stands for enzyme-linked immunosorbent assay.)

T1 sequence (P35408 whole entry): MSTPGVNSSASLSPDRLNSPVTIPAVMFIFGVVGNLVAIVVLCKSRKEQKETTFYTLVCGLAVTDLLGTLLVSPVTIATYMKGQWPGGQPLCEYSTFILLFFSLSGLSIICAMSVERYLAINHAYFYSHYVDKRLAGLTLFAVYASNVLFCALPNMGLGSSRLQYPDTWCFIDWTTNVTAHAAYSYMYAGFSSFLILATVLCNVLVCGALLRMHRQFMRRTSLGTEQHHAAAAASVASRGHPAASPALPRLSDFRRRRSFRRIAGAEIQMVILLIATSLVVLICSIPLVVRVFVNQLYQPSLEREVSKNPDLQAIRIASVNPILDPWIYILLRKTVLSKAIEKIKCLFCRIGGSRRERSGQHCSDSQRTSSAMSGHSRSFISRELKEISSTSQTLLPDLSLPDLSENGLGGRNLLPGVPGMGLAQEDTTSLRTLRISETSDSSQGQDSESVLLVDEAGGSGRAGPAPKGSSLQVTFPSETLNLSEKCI

In experiment [1], `COc1cccc(C[C@@H]2CCC=C2c2nc(-c3ccccc3)c(-c3ccccc3)o2)c1` [Test Compound (1), (S)-2-(4,5-Diphenyloxazol-2-yl)-1-(3-methoxybenzyl)-2-cyclopentene] returned an inhibition at 10 µM of more than 80%. On the same count and under the same terms, the value for `O=C(O)c1ccc(C[C@@H]2CCCC=C2c2nc(-c3ccccc3)c(-c3ccccc3)o2)cc1` [Test Compound (2), (S)-4-{[2-(4,5-Diphenyloxazol-2-yl)-2-cyclohexen-1-yl]-methyl}benzoic acid] was more than 80%. Same read-out and setting: with `NC(=O)COc1cccc(C[C@@H]2CCCC=C2c2nc(-c3ccccc3)c(-c3ccccc3)o2)c1` [Test Compound (3), (S)-{3-{[2-(4,5-Diphenyloxazol-2-yl)-2-cyclohexen-1-yl]-methyl}phenoxy}actamide] the figure was more than 80%. Take `O=C([O-])c1cccc(C[C@@H]2CCCC=C2c2nc(-c3ccccc3)c(-c3ccccc3)o2)c1.[Na+]` [Test Compound, Sodium (S)-3-{[2-(4,5-diphenyloxazol-2-yl)-2-cyclohexen-1-yl]methyl}benzoate]: the IgG1 secretion was determined as 1607.6 ± 150.9 ng/mL in the experiment with Mouse B Lymphocytes (+ 10^-6 M PGE2, # p < 0.01 v.s. Control (-PGE2)) and 1053.0 ± 176.2 ng/mL in the experiment on Mouse B Lymphocytes (-PGE2). Also, the IgE secretion in the experiment on Mouse B Lymphocytes (+ 10^-6 M PGE2, * p < 0.01 v.s. Control (+10^-6 M PGE2)) is 37.0 ± 7.0 ng/mL; with Mouse B Lymphocytes (-PGE2) it was 21.2 ± 5.7 ng/mL.

(Values after US6245790A, “Oxazole compounds useful as PGE2 agonists and antagonists” (Fujisawa Pharmaceutical Co., Ltd., priority 1997, dated 2001).)
